Measurements reported in article PMC7170309, “Imidazopyridine-fused [1,3]diazepinones: modulations of positions 2 to 4 and their impacts on the anti-melanoma activity” (Journal of Enzyme Inhibition and Medicinal Chemistry, 2020).
Where two headings read alike, the source gives them in different places.

Legend:
[1] = system: MDA-MB-435 melanoma cells; parameters: method as in PMID 27871038; settings: previously described naphthyl analogues; read-out: IC50 on MDA-MB-435 cell line; cited from earlier work
A375 melanoma cells = experiment: Neutral red uptake (NRU) viability assay, A375; format: cell-based, human; settings: for IC50: Homo sapiens, A-375, 72 h, mean ± SD of three experiments; for cytotoxic activity on A375 (in words): up to 40 µM
Experimental: (§1) Melanoma human cancer cell line (A375 and MDA-MB-435) were obtained from ATCC. The NIH-3T3 cell line was generously gifted by the ANSM (French National Agency for Medicines and Health Products Safety, Vendargues, France). Cells were cultured in Dulbecco’s Modified Eagle Medium (DMEM, Sigma Aldrich) supplemented with 10% heat-inactivated foetal calf serum (FCS, Gibco), 2 mM glutamax (Gibco), 100 IU/mL penicillin G sodium (Sigma Aldrich), 100 lU/mL streptomycin sulphate (Sigma Aldrich). The cells were allowed to grow at 37 °C in a fully humidified atmosphere containing 5% CO2.
(§2) A viability assay was used to evaluate the cytotoxic activity on A375 and MDA-MB-435 melanoma cells as previously described. According to OCDE/ICCVAM guidance n°129, NRU assay was also used to evaluate the toxicity on the non-cancerous NIH-3T3 cells. Cells were seeded at a final concentration of 2000 cells/well (A375), 3000 cells/well (NIH-3T3) or 7500 cells/well (MDA-MB-435) in 96-well microtiter plates for 24 h. Then, cells were exposed to two negative controls (1% DMSO in culture medium (vehicle) and culture medium alone), or to different compounds freshly dissolved in DMSO, in a range of concentration from 0.01 to 40 µM (six wells per concentration). After 72 h of incubation, cells were stained with new medium containing 50 µg/mL of neutral red (3-amino-7-dimethylamino-2-methylphenazine hydrochloride, Sigma Aldrich) at 37 °C for 2 h. The neutral red medium solution was then removed and the wells were washed with PBS. Finally, 100 µL of solution containing ethanol, acetic acid and water (50/1/49 v/v/v respectively) were added into the wells and the absorbance was measured at 540 nm using the microplate reader 352 Multiscan MS (Labsystems). Cell survival rates were normalised to the absorbance values of untreated control cells. IC50 was obtained using a logistic regression model on Graphpad Prism 5.0 software. Results are given as the mean ± standard deviation (SD) of three independent experiments. Statistical analysis was performed using the Student’s t-test.

[2] = system: MDA-MB-435 melanoma cells; experiment: Neutral red uptake (NRU) viability assay, MDA-MB-435; format: cell-based, human; settings: for IC50: Homo sapiens, MDA-MB-435, 72 h, mean ± SD of three experiments; for IC50 / cytotoxic activity on MDA-MB-435 (in words): NRU assay; for cytotoxic activity on MDA-MB-435 (in words): up to 40 µM; for times less active on MDA-MB-435 than on A375 cells: ratio of NRU IC50 values
Experimental: as §1, §2

[3] = system: NIH-3T3 non-cancerous cells; experiment: Neutral red uptake (NRU) toxicity assay, NIH-3T3; format: cell-based; settings: non-cancerous mouse fibroblasts
Experimental: as §1, §2
Then, all active compounds on the two melanoma cell lines (IC50 < 40 µM) were assessed on the NIH-3T3 mouse fibroblast cell line, in order to check the toxicity of our compounds on non-cancerous cells. […] As a possible modification of the mechanism of action was hypothesised for these two derivatives (see above), this phenomenon could probably be also correlated with the cytotoxicity observed on the NIH-3T3 cell line.

[4] = Calculated physicochemical parameters (molsoft cheminformatic tool); settings: predicted
Experimental: Data set of physicochemical properties (cLogP, TPSA and molecular volume, Table 2) were calculated using the online available molsoft cheminformatic tool[23]. IC50 values of the compounds included in the test are presented in Table 1 for the correlations between IC50 and physicochemical properties of compounds modified in position 2 (Figure 2), and in Table S1 (SI) for the correlations between in vitro anti-cancer activity of JMV5038, compound 5 and […] on the NCI cell line panel (Figure 4). Pearson’s correlation coefficient r and level of significant p values were calculated using Origin Pro 2019.

[5] = Hydrolysis of ester 19 into acid 21 in the presence of melanoma cells and culture medium (HPLC-MS); format: in vitro ADME; settings: after 72 h in the presence of melanoma cells and culture medium
Excerpt: Then, we turned our attention to the SAR study of the position 4 of the diazepine ring, keeping constant the 4-bromophenyl group at R^2 (i.e. compounds 13–17 and 19–22). […] Introduction of a ramified isobutyl chain (compound 15) led also to a loss of the activity (entry 13, Table 1). […] In the same way, a less flexible chain bearing an alkyne group (compound 14) was not tolerated, as well as a long chain (compound 22) (Table 1, entries 12 and 20 respectively).

Q: Which melting point does the source give for C[C@@H]1NC(c2ccc(C#C[Si](C)(C)C)cc2)=Nc2nc3ccccn3c2C1=O here?
A: 115 to 116 °C

Q: For CC1NC(c2cccc3ccccc23)=Nc2nc3ccccn3c2C1=O (stereo not drawn) [1-naphthyl derivative], which IC50 [1] is on record?
A: 1.4 µM

Q: Which IC50 [1] does the source give for CC1NC(c2ccc3ccccc3c2)=Nc2nc3ccccn3c2C1=O (stereo not drawn) [2-naphthyl derivative] here?
A: 1.4 µM

Q: For C#Cc1ccc(C2=Nc3nc4ccccn4c3C(=O)[C@H](C)N2)cc1 [4′, (4S)-4-methyl-2–(4-ethynylphenyl)-3,4-dihydro-5H-pyrido[1’,2’:1,2]imidazo[4,5-d][1,3]diazepin-5-one], which IC50 (A375 melanoma cells) is on record?
A: 10.2 ± 0.55 µM

Q: What about the IC50 [2] of the same molecule?
A: 5.14 ± 0.08 µM

Q: And the IC50 ([3]; Mus musculus, NIH3T3, 72 h)?
A: > 40 µM

Q: And the “molecular volume increase compared to JMV5038” value [4]?
A: 2%

Q: What about the melting point of the same molecule?
A: 128 to 129 °C

Q: Which IC50 (A375 melanoma cells) does the source give for C[C@@H]1NC(c2c[nH]c3ccccc23)=Nc2nc3ccccn3c2C1=O [9′, (4S)-4-methyl-2-indol-3-yl-3,4-dihydro-5H-pyrido[1’,2’:1,2]imidazo[4,5-d][1,3]diazepin-5-one] here?
A: > 40 µM

Q: And the “cytotoxic activity on A375 (in words)” value (A375 melanoma cells)?
A: totally inactive

Q: What about the IC50 [2] of the same molecule?
A: > 40 µM

Q: What about the “cytotoxic activity on MDA-MB-435 (in words)” value [2] of the same molecule?
A: totally inactive

Q: And the melting point?
A: 164.5 to 165.5 °C

Q: What does the source list for C[C@@H]1NC(c2ccc(C(=O)c3ccccc3)cc2)=Nc2nc3ccccn3c2C1=O [Compound 6, (4S)-4-methyl-2-(4-benzoylphenyl)-3,4-dihydro-5H-pyrido[1’,2’:1,2]imidazo[4,5-d][1,3]diazepin-5-one]?
A: IC50 (A375 melanoma cells): > 40 µM; cytotoxic activity on A375 (in words) (A375 melanoma cells): totally inactive; IC50 [2]: > 40 µM; cytotoxic activity on MDA-MB-435 (in words) [2]: totally inactive; melting point: 132 to 133 °C

Q: What does the source list for C[C@@H]1NC(c2coc3ccccc23)=Nc2nc3ccccn3c2C1=O [Compound 7, (4S)-4-methyl-2-benzofuran-3-yl-3,4-dihydro-5H-pyrido[1’,2’:1,2]imidazo[4,5-d][1,3]diazepin-5-one]?
A: IC50 (A375 melanoma cells): 8.47 ± 0.21 µM; IC50 [2]: 25.92 ± 0.17 µM; times less active on MDA-MB-435 than on A375 cells [2]: around 3; IC50 ([3]; Mus musculus, NIH3T3, 72 h): > 40 µM; melting point: 164 to 165 °C

Q: Which melting point does the source give for C[C@@H]1NC(c2cn(C(=O)OC(C)(C)C)c3ccccc23)=Nc2nc3ccccn3c2C1=O [Compound 9, (4S)-4-methyl-2-(1-boc-indol-3-yl)-3,4-dihydro-5H-pyrido[1’,2’:1,2]imidazo[4,5-d][1,3]diazepin-5-one] here?
A: 155 to 157 °C

Q: For C[C@@H]1NC(c2ccc3ncccc3c2)=Nc2nc3ccccn3c2C1=O [Compound 10, (4S)-4-methyl-2-quinolin-6-yl-3,4-dihydro-5H-pyrido[1’,2’:1,2]imidazo[4,5-d][1,3]diazepin-5-one], which IC50 (A375 melanoma cells) is on record?
A: 9.76 ± 0.95 µM

Q: What about the IC50 [2] of the same molecule?
A: 35.49 ± 0.21 µM

Q: What about the “times less active on MDA-MB-435 than on A375 cells” value [2] of the same molecule?
A: around 3

Q: And the IC50 ([3]; Mus musculus, NIH3T3, 72 h)?
A: > 40 µM

Q: What about the melting point of the same molecule?
A: 165 to 166 °C

Q: Which results are given for C[C@@H]1NC(c2ccc3ccccc3n2)=Nc2nc3ccccn3c2C1=O [Compound 11, (4S)-4-methyl-2-quinolin-2-yl-3,4-dihydro-5H-pyrido[1’,2’:1,2]imidazo[4,5-d][1,3]diazepin-5-one]?
A: IC50 (A375 melanoma cells): 15.6 ± 0.7 µM; IC50 [2]: 30.71 ± 0.19 µM; times less active on MDA-MB-435 than on A375 cells [2]: around 3; IC50 ([3]; Mus musculus, NIH3T3, 72 h): > 40 µM; melting point: 170 to 171 °C

Q: With C[C@@H]1NC(c2ccc3oc(=O)ccc3c2)=Nc2nc3ccccn3c2C1=O [Compound 12, (4S)-4-methyl-2-coumarin-6-yl-3,4-dihydro-5H-pyrido[1’,2’:1,2]imidazo[4,5-d][1,3]diazepin-5-one] as the molecule, how does the IC50 (A375 melanoma cells) read?
A: > 40 µM

Q: And the “cytotoxic activity on A375 (in words)” value (A375 melanoma cells)?
A: totally abolished the activity

Q: And the IC50 [2]?
A: > 40 µM

Q: What about the “cytotoxic activity on MDA-MB-435 (in words)” value [2] of the same molecule?
A: totally abolished the activity

Q: And the melting point?
A: 132.5 to 133.5 °C

Q: What does the source list for CCCC[C@@H]1NC(c2ccc(Br)cc2)=Nc2nc3ccccn3c2C1=O [Compound 13, (4S)-4-butyl-(4-bromophenyl)-3,4-dihydro-5H-pyrido[1’,2’:1,2]imidazo[4,5-d][1,3]diazepin-5-one]?
A: IC50 (A375 melanoma cells): 15.3 ± 1.29 µM; IC50 [2]: 30.83 ± 0.09 µM; IC50 ([3]; Mus musculus, NIH3T3, 72 h): > 40 µM

Q: Which IC50 (A375 melanoma cells) does the source give for C#CC[C@@H]1NC(c2ccc(Br)cc2)=Nc2nc3ccccn3c2C1=O [Compound 14, (4S)-4-propargyl-2-(4-bromophenyl)-3,4-dihydro-5H-pyrido[1’,2’:1,2]imidazo[4,5-d][1,3]diazepin-5-one] here?
A: > 40 µM

Q: And the IC50 [2]?
A: > 30 µM

Q: What does the source list for CC(C)C[C@@H]1NC(c2ccc(Br)cc2)=Nc2nc3ccccn3c2C1=O [Compound 15, (4S)-4-isobutyl-2-(4-bromophenyl)-3,4-dihydro-5H-pyrido[1’,2’:1,2]imidazo[4,5-d][1,3]diazepin-5-one]?
A: IC50 (A375 melanoma cells): > 40 µM; IC50 [2]: > 30 µM; melting point: 72 to 73 °C

Q: With [N-]=[N+]=NCCCC[C@H]1NC(c2ccc(Br)cc2)=Nc2nc3ccccn3c2C1=O [Compound 17, (4R)-4-(4-azidobutyl)-2-(4-bromophenyl)-3,4-dihydro-5H-pyrido[1’,2’:1,2]imidazo[4,5-d][1,3]diazepin-5-one] as the molecule, how does the IC50 (A375 melanoma cells) read?
A: 8.54 ± 0.22 µM

Q: What about the IC50 [2] of the same molecule?
A: 30.9 ± 0.11 µM

Q: What about the IC50 ([3]; 72 h) of the same molecule?
A: 13.7 ± 0.34 µM

Q: And the IC50 ([3]; Mus musculus, NIH3T3, 72 h)?
A: ~10 µM

Q: Which results are given for [N-]=[N+]=NCCCC[C@@H]1NC(c2ccccc2)=Nc2nc3ccccn3c2C1=O [Compound 18, (4S)-4-(4-azidobutyl)-2-phenyl-3,4-dihydro-5H-pyrido[1’,2’:1,2]imidazo[4,5-d][1,3]diazepin-5-one]?
A: IC50 (A375 melanoma cells): > 40 µM; cytotoxic activity on A375 (in words) (A375 melanoma cells): totally inactive; IC50 [2]: > 40 µM; cytotoxic activity on MDA-MB-435 (in words) [2]: totally inactive; melting point: 116 to 117 °C

Q: What does the source list for O=C(C[C@@H]1NC(c2ccc(Br)cc2)=Nc2nc3ccccn3c2C1=O)OCc1ccccc1 [Compound 19, (4S)-benzyl [2-(4-bromophenyl)-5-oxo-4,5-dihydro-3H-pyrido[1’,2’:1,2]imidazo[4,5-d][1,3]diazepin-4-yl]acetate]?
A: IC50 (A375 melanoma cells): 9.78 ± 0.83 µM; IC50 [2]: 19.4 ± 0.64 µM; IC50 ([3]; Mus musculus, NIH3T3, 72 h): > 40 µM; hydrolysis rate (conversion into acid 21) [5]: 65.5%; melting point: 72.5 to 73.5 °C

Q: Which IC50 (A375 melanoma cells) does the source give for O=C1c2c(nc3ccccn23)N=C(c2ccc(Br)cc2)N2CCC[C@@H]12 [Compound 20, 7–(4-bromophenyl)-9,10,11,11a-tetrahydro-12H-pyrido[2’,1’:2,3]imidazo[4,5-f]pyrrolo[1,2-c][1,3]diazepin-12-one] here?
A: > 40 µM

Q: What about the IC50 [2] of the same molecule?
A: > 40 µM

Q: With O=C(O)C[C@@H]1NC(c2ccc(Br)cc2)=Nc2nc3ccccn3c2C1=O [Compound 21, (4S)-[2-(4-bromophenyl)-5-oxo-4,5-dihydro-3H-pyrido[1’,2’:1,2]imidazo[4,5-d][1,3]diazepin-4-yl]acetic acid] as the molecule, how does the IC50 (A375 melanoma cells) read?
A: > 40 µM

Q: And the “cytotoxic activity on A375 (in words)” value (A375 melanoma cells)?
A: inactive

Q: And the IC50 [2]?
A: > 40 µM

Q: And the “cytotoxic activity on MDA-MB-435 (in words)” value [2]?
A: inactive

Q: Which IC50 (A375 melanoma cells) does the source give for C#CCCC(=O)NCCCC[C@@H]1NC(c2ccc(Br)cc2)=Nc2nc3ccccn3c2C1=O [Compound 22, (4S)-N-{4-[2-(4-bromophenyl)-5-oxo-4,5-dihydro-3H-pyrido[1’,2’:1,2]imidazo[4,5-d][1,3]diazepin-4-yl]butyl}pent-4-ynamide] here?
A: > 40 µM

Q: And the IC50 [2]?
A: > 40 µM
